The supplement of paper PMC11061612

Legend:
Test in all cases: combination Emax (second highest fraction inhibited in the dose matrix, 72 h); higher = more inhibition; extreme values may be limits of the assay
[1] = system: DoTc2-4510 (Cervical Carcinoma)
Outline: (§1)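 After 24 hours at 37°C and 5% CO2 in 1536-well plates, cells in DMEM/F12 or RPMI plus 10% FBS received two-drug dose matrices for 72 hours. Viability came from CellTiter-Glo 2.0 luminescence and was scaled as inhibition, anchored at 0 by vehicle wells and at 1 by blank wells. Combination Emax is taken as the second-highest inhibition in the matrix, and Bliss excess as the observed combination effect less EA + EB − EA·EB, with EA and EB the single-agent effects.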

[2] = system: MDA-MB-361 (Breast Carcinoma)
Outline: as §1

[3] = system: COLO-205 (Colorectal Carcinoma)
Outline: as §1

[4] = system: NCI-H82 (Small Cell Lung Carcinoma)
Outline: as §1

T98G (Glioblastoma) = system: T98G (Glioblastoma)
Outline: as §1

[5] = system: HT-1376 (Bladder Carcinoma)
Outline: as §1

AGS (Gastric Carcinoma) = system: AGS (Gastric Carcinoma)
Outline: as §1

[6] = system: SK-ES-1 (Ewing's Sarcoma)
Outline: as §1

[7] = system: B-CPAP (Thyroid Gland Carcinoma)
Outline: as §1

[8] = system: LS-180 (Colorectal Carcinoma)
Outline: as §1

[9] = system: Hs-578-T (Breast Carcinoma)
Outline: as §1

[10] = system: HO-1-N-1 (Oral Cavity Carcinoma)
Outline: as §1

SMILES	combination Emax [1]	combination Emax [2]	combination Emax [3]	combination Emax [4]	combination Emax (T98G (Glioblastoma))	combination Emax [5]	combination Emax (AGS (Gastric Carcinoma))	combination Emax [6]	combination Emax [7]	combination Emax [8]	combination Emax [9]	combination Emax [10]
COc1cccc(OCCCN)c1-c1cc(Nc2cnc(C#N)cn2)n[nH]1 [Prexasertib] + C[C@@H]1COCCN1C2=NC(=NC(=C2)C3(CC3)[S@](=N)(=O)C)C4=C5C=CNC5=NC=C4 [AZD6738] (first compound max 1 µM, 7x7, partner max 10 µM)	0.88	0.922	0.565	0.995	0.905	0.503	0.663	0.944	0.742	0.819	0.912	0.898
C[C@@H]1COCCN1c1cc(C2([S@](C)(=N)=O)CC2)nc(-c2ccnc3[nH]ccc23)n1 [AZD6738] + O=C(c1cc(Cc2n[nH]c(=O)c3ccccc23)ccc1F)N1CCN(C(=O)C2CC2)CC1 [Olaparib] (first compound max 10 µM, 7x7, partner max 10 µM)	0.7	0.836	0.301	0.921	0.817	0.456	0.604	0.933	0.498	0.733	0.898	0.839
CCN(CCO)CCCOc1ccc2c(Nc3cc(CC(=O)Nc4cccc(F)c4)[nH]n3)ncnc2c1 [AZD2811] + C[C@@H]1COCCN1C2=NC(=NC(=C2)C3(CC3)[S@](=N)(=O)C)C4=C5C=CNC5=NC=C4 [AZD6738] (first compound max 1 µM, 7x7, partner max 10 µM)	0.675	0.815	0.849	0.922	0.799	0.54	0.605	0.968	0.407	0.754	0.839	0.858
COc1cccc(OCCCN)c1-c1cc(Nc2cnc(C#N)cn2)n[nH]1 [Prexasertib] + C=CCn1c(=O)c2cnc(Nc3ccc(N4CCN(C)CC4)cc3)nc2n1-c1cccc(C(C)(C)O)n1 [AZD1775] (first compound max 1 µM, partner max 1 µM)	0.906	0.926	0.908	0.996	0.917	0.422	0.901	1	0.874	0.819	0.942	0.985
COc1cccc(OCCCN)c1-c1cc(Nc2cnc(C#N)cn2)n[nH]1 [Prexasertib] + O=C(c1cc(Cc2n[nH]c(=O)c3ccccc23)ccc1F)N1CCN(C(=O)C2CC2)CC1 [Olaparib] (first compound max 1 µM, 7x7, partner max 10 µM)	0.875	0.919	0.573	0.925	0.757	0.479	0.426	1	0.763	0.724	0.925	0.938
CN(CCO)CC[C@H](CSc1ccccc1)Nc1ccc(S(=O)(=O)NC(=O)c2ccc(N3CCC([C@@H](O)c4ccccc4-c4ccc(Cl)cc4)CC3)cc2)cc1S(=O)(=O)C(F)(F)F [AZD4320] + C1CN(CCC1(C(=O)N[C@@H](CCO)C2=CC=C(C=C2)Cl)N)C3=NC=NC4=C3C=CN4 [Capivasertib] (first compound max 1 µM, 7x7, partner max 3 µM)	0.59	0.341	0.831	0.255	0.249	0.74	0.692	0.94	0.284	0.213	0.639	0.216
CC(=O)c1c(C)c2cnc(Nc3ccc(N4CCNCC4)cn3)nc2n(C2CCCC2)c1=O [Palbociclib] + Cc1c2c(nn1C)CSCc1cc(n(C)n1)CSc1cc(c3ccccc3c1)OCCCc1c(C(=O)O)n(C)c3c-2c(Cl)ccc13 [AZD5991] (first compound max 10 µM, 7x7, partner max 1 µM)	0.215	0.586	0.497	0.98	0.4	0.216	0.445	0.851	0.427	0.521	0.372	0.597
Cn1cnc2c(F)c(Nc3ccc(Br)cc3Cl)c(C(=O)NOCCO)cc21 [Selumetinib] + CC(C)n1c(=O)n(C)c2cnc3cc(F)c(-c4ccc(OCCCN5CCCCC5)nc4)cc3c21 [AZD1390] (first compound max 10 µM, 7x7, partner max 0.3 µM)	0.144	0.12	0.705	0.177	0.191	0.157	0.842	0.19	0.254	0.573	0.369	0.506
CN(CCO)CC[C@H](CSc1ccccc1)Nc1ccc(S(=O)(=O)NC(=O)c2ccc(N3CCC([C@@H](O)c4ccccc4-c4ccc(Cl)cc4)CC3)cc2)cc1S(=O)(=O)C(F)(F)F [AZD4320] + C=CCn1c(=O)c2cnc(Nc3ccc(N4CCN(C)CC4)cc3)nc2n1-c1cccc(C(C)(C)O)n1 [AZD1775] (first compound max 1 µM, partner max 1 µM)	0.884	0.918	0.902	0.932	0.892	0.718	0.999	1	0.632	0.422	0.928	0.549
CC1(C)CCC(CN2CCN(c3ccc(C(=O)NS(=O)(=O)c4ccc(NCC5CCOCC5)c([N+](=O)[O-])c4)c(Oc4cnc5[nH]ccc5c4)c3)CC2)=C(c2ccc(Cl)cc2)C1 [Venetoclax] + C1CN(CCC1(C(=O)N[C@@H](CCO)C2=CC=C(C=C2)Cl)N)C3=NC=NC4=C3C=CN4 [Capivasertib] (first compound max 1 µM, 7x7, partner max 3 µM)	0.245	0.474	0.237	0.3	0.326	0.11	0.316	0.469	0.177	0.287	0.812	0.258
COc1nnc2ccc(N3CCC(c4ccc(OCCN5CCN(C)C(=O)[C@H]5C)cc4)CC3)nn12 [AZD5153] + Cn1cnc2c(F)c(Nc3ccc(Br)cc3Cl)c(C(=O)NOCCO)cc21 [Selumetinib] (first compound max 1 µM, 7x7, partner max 10 µM)	0.427	0.642	1	0.378	0.476	0.26	0.999	0.579	0.603	0.828	0.736	0.773
COc1cc2c(cc1OCCCCCOc1cc3c(cc1OC)C(=O)N1C=C(C)C[C@H]1C=N3)N=C[C@@H]1CC(C)=CN1C2=O [SG3199] + O=C(c1cc(Cc2n[nH]c(=O)c3ccccc23)ccc1F)N1CCN(C(=O)C2CC2)CC1 [Olaparib] (first compound max 0.001 µM, 7x7, partner max 10 µM)	0.321	0.0847	0.0813	0.323	0.114	0.121	0.248	0.917	0.217	0.181	0.256	0.103
NC1(C(=O)N[C@@H](CCO)c2ccc(Cl)cc2)CCN(c2ncnc3[nH]ccc23)CC1 [Capivasertib] + CC(=O)c1c(C)c2cnc(Nc3ccc(N4CCNCC4)cn3)nc2n(C2CCCC2)c1=O [Palbociclib] (first compound max 10 µM, 7x7, partner max 10 µM)	0.181	0.546	0.587	0.836	0.6	0.144	0.697	0.655	0.523	0.61	0.676	0.635
CN(CCO)CC[C@H](CSc1ccccc1)Nc1ccc(S(=O)(=O)NC(=O)c2ccc(N3CCC([C@@H](O)c4ccccc4-c4ccc(Cl)cc4)CC3)cc2)cc1S(=O)(=O)C(F)(F)F [AZD4320] + CN(C)CCCOc1ccc(-c2ccc3ncc4c(c3c2)n(C2CCOCC2)c(=O)n4C)cn1 [AZD0156] (first compound max 1 µM, 7x7, partner max 1 µM)	0.6	0.205	0.77	0.282	0.126	0.484	0.237	0.899	0.408	0.159	0.531	0.156
C=CCn1c(=O)c2cnc(Nc3ccc(N4CCN(C)CC4)cc3)nc2n1-c1cccc(C(C)(C)O)n1 [AZD1775] + C[C@@H]1COCCN1C2=NC(=NC(=C2)C3(CC3)[S@](=N)(=O)C)C4=C5C=CNC5=NC=C4 [AZD6738] (first compound max 1 µM, partner max 10 µM)	0.751	0.922	0.863	0.979	0.873	0.67	0.848	0.926	0.811	0.809	0.921	0.883
